Experimental data from patent US9566282B2, “Methods for identifying and validating selective anti-cancer stem cell agents” (MCMASTER UNIVERSITY, priority 2011, dated 2017).
Counter-ions that a name gives are not always drawn.

Assays:
[1] = tested on: HL-60, MV4-11 and OCI-AML3; experiment: Cytotoxicity to leukemic cell lines (normalized cell number, 72 h); assay type: cell-based; conditions: 10 μM
Method: (§1) All three lines are leukemic cell lines. HL-60 was derived from promyelocytic AML whereas MV 4-11 and OCI-AML3 are representative of AML. Each compound was incubated with the cells for 72 h. The control was DMSO (ie the vehicle used for the compound) for 72 h. Each condition had three replicates.
The dopamine receptor antagonist and phenothiazine-related compound chlorpromazine was also investigated for effects on the AML cell lines HL-60, MV4-11 and OCI-AML3. Testing was performed as set out in Example 1.

[2] = tested on: normal HSCs / HSPC (CB lin-); experiment: Methylcellulose colony-forming assay, normal HSC/HSPC; assay type: cell-based, human; conditions: for HSPC CFU potential: 24 h treatment before plating, 0.1, 1, 10 μM tested
Method: Normal HSCs and progenitors were sourced from either mobilized peripheral blood or umbilical cord blood of health patients.
Patient HSPC and AML samples were treated with compound or DMSO-vehicle (0.1%) for 24 h prior to CFU plating or xenotransplantation studies.
AML patient or CB lin− cells were cultured 24 hours in the presence of compound or DMSO-vehicle (0.1%) control. […] CB lin− cells were plated at 1000 cells/mL in Methocult GF H4434 (Stem Cell Technologies). Colonies were scored after 14 days of culture using standard morphological criteria.

[3] = tested on: primary AML cells (AML blast CFU); experiment: Methylcellulose blast-CFU assay, primary AML cells; assay type: cell-based, human; conditions: for AML-blast CFU potential / formation: 24 h treatment before plating, salinomycin at 1 μM and 10 μM
Text: (§2) Due to the bioavailability of dopamine in fetal bovine serum (FBS) (Little et al., 2002), serum-free conditions were employed to assess the role of DRs in AML. […] DR D2-family and D1-family exert opposing actions on intracellular signaling leading to differential biological effects (Self et al., 1996).

[4] = tested on: HL-60, OCI-AML2 and OCI-AML3; experiment: Cytotoxicity of DR agonists/antagonists against AML cell lines; assay type: cell-based; conditions: 72 h; CLOZ at higher concentrations
Method: as §1
A series of dopamine receptor agonists, D3-antagonists, DR1 & 5-antagonists and multi-receptor antagonists were tested for cytotoxicity against three AML cell lines HL-60, OCI-AML2 and OCI-AML3. Testing was performed as set out in Example 1.

[5] = tested on: neoplastic hPSCs (v1H9-Oct4-GFP); experiment: Flow cytometry of Oct4+ cells in neoplastic hPSC; assay type: cell-based, human; conditions: three concentrations; compared with BMP4 differentiation controls
neoplastic hPSCs [6] = experiment: p53 and p21 staining of neoplastic hPSC; assay type: cell-based, human; conditions: 24 h; compounds at 10 μM
Text: Antibodies used for immunocytochemistry were the following: Oct3/4 (BD Trunsduction Laboratories, cat#611203), Sox2 (R&D, cat#AF2018). To detect human hematopoietic cells, Pacific Blue−, PE−, APC− or FITC labeled anti-human CD45 was used (BD Biosciences). FITC anti-CD33, PE anti-CD13, FITC anti-CD41a, FITC anti-HLA DR, and PE anti-CD19 antibodies were obtained from BD Pharmingen. PE anti-CD14, PE anti-CD15 and PE anti-GlyA were acquired from Immunotech Beckman Coulter. To determine pluripotency, PE anti-SSEA3 (BD Biosciences) and PE- or AlexaFluor488 anti-Oct4 (BD Biosciences). Rabbit anti-human dopamine receptor antibodies; DRD1 (Cat#324390), DRD2 (Cat#324393), DRD3 (Cat#324402), DRD4 (Cat#324405) and DRD5 (Cat#324408) were sourced from EMD Chemical. Anti-rabbit Alexa-Fluor-488 (Molecular Probes) was used as the secondary antibody. Primary anti-p53 (Cat#2527) and anti-p21 (Cat#2947) rabbit IgG sourced from Cell Signaling Technology were used to stain fixed and permeabilized cells. Anti-rabbit alexa-Fluor-546 (Molecular Probes) was used as the secondary antibody. For breast tumor staining, APC anti-CD44 and PE-CD24 were sourced from BD Pharmingen.

neoplastic hPSCs [7] = experiment: TaqMan Low-Density Array-qPCR of differentiation genes; assay type: cell-based, human; conditions: thioridazine-treated neoplastic hPSCs; >2 fold increase
Method: Cells in specific conditions were collected and RNA was extracted by using RNeasy kit (Qiagen), complementary DNA (cDNA) generation by using SuperScript III® cDNA synthesis kit (Invitrogen), pre-amplification and TaqMan® array reaction (Applied Biosystems) were performed according to manufacturer's instructions. The gene expression profile for each treated cell population was analyzed using TaqMan® Stem Cell Pluripotency Array Card on ViiA 7 Real-Time PCR System (Applied Biosystems). Each reaction sample was dispensed into loading wells on the array card and centrifuged twice at 336×g for 1 min each time, sealed, and placed in the thermal cycler. The following cycling conditions were used for all array card applications: 45° C. for 10 min, 94° C. for 10 min, and 40 cycles of 94° C. for 30 s followed by 60° C. for 1 min. Array data were normalized to 18S RNA and GAPDH and comparisons were performed using data analysis 2.0 software (Applied Biosystems).
Rapid accumulation of the cell stress marker p53 (FIG. 10d) and its transcriptional target p21 (FIG. 10e) were used to further distinguish differentiation induction from cellular toxicity.

HSPCs / HSCs (CB lin-) = conditions: in vivo
Method: (§3) NOD.Cg-Prkdc^scid ll2rg^tm1Wjl/SzJ adult mice (NSG) were sub-lethally irradiated with 315 rads 24 hours prior transplantation. 0.8-1.0×10^7 AML MNCs or 1.5-1.8×10^5 CB lin− hematopoietic cells treated with compound or DMSO-vehicle for 24 h were injected via tail vein (IV). After 6-10 weeks, animals were culled, and the BM and spleen were analyzed for the presence of human cells by flow cytometry (LSRII, BD) and data was analyzed using FlowJo software (Tree Star Inc). For secondary HSPC transplants, equal number of engrafted human cells from CB lin− transplants were injected IV in adult irradiated NSG mice as described for primary transplants.
(§4) To delineate whether the inhibition of AML-blasts detected in vitro was due to the compounds affecting the neoplastic stem cell compartment, xenotransplantation studies (Dick, 2008) that functionally define LSCs and hematopoietic stem cells (HSCs) were conducted (FIG. 12).

AML LSCs = experiment: Xenotransplantation of compound-treated AML cells into NSG mice; assay type: in vivo, human; conditions: 10 μM, cells treated 24 h before transplantation
Method: as §3, §4

AML-OCI2 and AML-OCI3 [8] = experiment: Volumetric cell counts of AML lines treated with DR antagonists or agonists; assay type: cell-based, human; conditions: 72 h, serum-free conditions
Method: The number of AML-OCI2 and AML-OCI3 cells present after 72 h treatment with DR antagonists (FIG. 16b) and agonist (FIG. 16c-d) were counted by measuring the number of events within a fixed volume following the grating strategy defined by forward scatter and side scatter clustering, 7AAD− and Hoechst+.
as §2

[9] = tested on: v1O4 cells (v1H9-Oct4-GFP); experiment: Library screen on variant neoplastic stem cells (LOP and cell count); assay type: cell-based, human; conditions: for hit: loss of pluripotency and reduction in cell counts: 10 μM or 1 μM, 72 hours, Z-score more than 3 SD
Method: Compounds that reduced cell counts below 100 were classified as highly toxic and not considered as useful.
Briefly, v1O4 cells were seeded into Matrigel-coated 96 well plates (5000 cells/well) containing mouse embryonic fibroblast conditioned media (MEFCM) supplemented with 8 ng/mL bFGF, and treated for 72 hours with compounds dissolved in DMSO. The final concentration of each compound used in treatment was either 10 μM or 1 μM (n=3). Control wells were treated with 0.1% DMSO (low control) or 100 ng/ml BMP4 (high control to induce LOP). At the end of 72 hours, cells were fixed, stained with Hoechst and imaged by automated microscopy. GFP intensity and Hoechst signal were quantified as measures of LOP and cell count, respectively, and compounds with a Z-score of more than 3 standard deviations from the mean for reduced cell count and LOP were chosen as hits.

AML-OCI2 and AML-OCI3 [10] = experiment: Induction of apoptosis in AML cancer cell lines (normal nuclei); assay type: cell-based, human
[11] = tested on: v1O4 cells versus H9 cells; experiment: Dose-response cell counts, v1O4 versus H9 (selective-activity potency ratio); assay type: cell-based, human; conditions: single 10 μM concentration point; selective at other concentrations
Method: The first step in the screening process, the primary screen, is shown in FIG. 21, step 1 and is also described in FIG. 17 and Example 13. […] These compounds then undergo a further set of analysis described in FIG. 21, step 2. […] 8- or 10-point dilutions for each compound are tested on variant neoplastic stem cells (V1O4) and normal stem cells (H9 cells) cells to generate dose-response curves. […] Dose response data were fit with a 4-parameter Hill equation to derive EC50, slopes, min and max values using IDBS ActivityBase software. The EC50 values are then used to calculate a selective-activity potency ratio (H9 EC50/v1O4 EC50). […] The efficacy of each compound can also be quantified by analysis if the derived min value from the 4-parameter Hill fit. An alternative metric for selective activity is an efficacy comparison. Selective EFFICACY=H9−FittedMin−v1O4−FittedMin.
Selectivity activity ratios [EC50 (v1O4)/EC50 (H9)] were calculated as discussed in Example 15 for a number of compounds screened using the methods described herein.

[12] = sorted patient AML cells, 24 h treatment

CSc1ccc2c(c1)N(CCC1CCCCN1C)c1ccccc1S2 (racemic) [thioridazine, 10-{2-[(RS)-1-Methylpiperidin-2-yl]ethyl}-2-methylsulfanylphenothiazine]
normalized cell number / toxicity [1]: reduced to almost zero
colony forming potential of normal HSCs ([2]; 10 μM, DMSO control about 100, at least 14 days): about 66 total colonies
HSPC CFU potential [2]: little effect on HSPC CFU potential
number of AML CFU blast colonies ([3]; 10 μM, control about 22, at least 14 days): 1.6 blast colonies
AML-blast CFU potential / formation [3]: reduced AML-blast CFU formation
blast-CFU generation, DR+ subfraction [3, 12]: reduction in blast-CFU generation
blast-CFU generation, DR− subfraction [3, 12]: no reduction
cytotoxicity of AML cell lines [4]: significant effect on cytotoxicity
cell number and levels of Oct4 in neoplastic hPSCs [5]: reduce levels of Oct4 below BMP4 differentiation controls
accumulation of p53 and p21 (neoplastic hPSCs [6]): no accumulation of p53 or p21
differentiation-associated genes upregulated (neoplastic hPSCs [7]): 21 of 50
HSC self-renewal (HSPCs / HSCs (CB lin-)): did not affect HSC self-renewal
AML LSC capacity (CD45+ CD33+ blast engraftment) (AML LSCs): significantly reduce leukemic disease-initiating AML LSCs
number of AML cells (AML-OCI2 and AML-OCI3 [8]): reduced the number of AML cells
hit: loss of pluripotency and reduction in cell counts [9]: identified as a hit
signs of cell stress/death (Hoechst nuclear stain) ([9]; 10 μM, 3-day treatment): less signs of cell stress/death than cells treated with thiostrepton
induction of apoptosis / cell death (AML-OCI2 and AML-OCI3 [10]): exerts its effects on these cell lines through cell death

Br.CCCN(CCC)[C@@H]1CCc2ccc(O)cc2C1 [7OH-DPAT, R(+)-7-Hydroxy-DPAT hydrobromide]
number of AML cells (AML-OCI2 and AML-OCI3 [8]): increased the number of AML cells

Nc1nc2nn[nH]c2c(=O)[nH]1 [8-azaguanine]
selectivity for cancer stem cells at a single concentration point [11]: would have not be considered selective for cancer stem cells

Cn1cc(C2=C(c3cn(CCCSC(=N)N)c4ccccc34)C(=O)NC2=O)c2ccccc21 [31-8220]
selectivity for cancer stem cells at a single concentration point [11]: would have not be considered selective for cancer stem cells

Oc1cc2c(cc1O)[C@@H](c1ccccc1)CNCC2 [SKF38393, (R)-(+)-SKF-38393 hydrochloride]
number of AML cells (AML-OCI2 and AML-OCI3 [8]): significant reduction in AML cell number

CN(C)CCCN1c2ccccc2Sc2ccc(Cl)cc21 [chlorpromazine, Chlorpromazine hydrochloride]
normalized cell number / toxicity [1]: toxic to AML cell lines
cytotoxicity of AML cell lines [4]: significant effect on cytotoxicity
number of AML cells (AML-OCI2 and AML-OCI3 [8]): reduced the number of AML cells
hit: loss of pluripotency and reduction in cell counts [9]: did not have a comparable effect on v1O4 cells

CN1CCN(C2=Nc3cc(Cl)ccc3Nc3ccccc32)CC1 [clozapine, Clozapine]
cytotoxicity of AML cell lines [4]: significant effect on cytotoxicity

COc1cc([C@@H]2c3cc4c(cc3[C@@H](O[C@@H]3O[C@@H]5CO[C@@H](C)O[C@H]5[C@H](O)[C@H]3O)[C@H]3COC(=O)[C@H]23)OCO4)cc(OC)c1O [etoposide]
accumulation of p53 and p21 (neoplastic hPSCs [6]): high levels of p53 and p21

OCCN1CCN(CCCN2c3ccccc3Sc3ccc(C(F)(F)F)cc32)CC1 [fluphenazine]
hit: loss of pluripotency and reduction in cell counts [9]: identified as hits

OC(c1cc(C(F)(F)F)nc2c(C(F)(F)F)cccc12)C1CCCCN1 (stereo not shown) [mefloquine]
HSPC CFU potential [2]: little effect on HSPC CFU potential
AML-blast CFU potential / formation [3]: reduced AML-blast CFU formation
cell number and levels of Oct4 in neoplastic hPSCs [5]: reductions in cell number and the levels of Oct4
AML LSC capacity (CD45+ CD33+ blast engraftment) (AML LSCs): ineffective in reducing AML LSC capacity

CCCCc1ccc2[nH]c(NC(=O)OC)nc2c1 [parbendazole]
selectivity for cancer stem cells at a single concentration point [11]: would have not be considered selective for cancer stem cells

OCCN1CCN(CCCN2c3ccccc3Sc3ccc(Cl)cc32)CC1 [perphenazine]
hit: loss of pluripotency and reduction in cell counts [9]: identified as hits

CN1CCN(CCCN2c3ccccc3Sc3ccc(Cl)cc32)CC1 [prochlorperazine]
hit: loss of pluripotency and reduction in cell counts [9]: identified as hits

CC[C@@H](C(=O)[C@@H](C)[C@@H](O)[C@H](C)[C@@H]1O[C@@H]([C@@H](CC)C(=O)O)CC[C@@H]1C)[C@H]1O[C@]2(C=C[C@@H](O)[C@]3(CC[C@@](C)([C@H]4CC[C@](O)(CC)[C@H](C)O4)O3)O2)[C@H](C)C[C@@H]1C [salinomycin]
HSPC CFU potential [2]: reduced HSPC CFU potential over all doses tested
AML-blast CFU potential / formation [3]: reduced AML-blast CFU potential

CN1CCN(CCCN2c3ccccc3Sc3ccc(C(F)(F)F)cc32)CC1 [trifluoperazine]
hit: loss of pluripotency and reduction in cell counts [9]: identified as hits

CN(C)CCCN1c2ccccc2Sc2ccc(C(F)(F)F)cc21 [triflupromazine]
hit: loss of pluripotency and reduction in cell counts [9]: identified as hits

BMP4: positive control that induces differentiation / loss of pluripotency, 100 ng/ml
accumulation of p53 and p21 (neoplastic hPSCs [6]): no accumulation of p53 or p21
